Experimental findings from ChEMBL document CHEMBL3861941, “Discovery of 4,6-disubstituted pyrimidines as potent inhibitors of the heat shock factor 1 (HSF1) stress pathway and CDK9” (Medchemcomm, 2016) are described below.

For test [1], the target named is Cyclin-dependent kinase 2/cyclin E1 (Homo sapiens, UniProt P24941). Put plainly: Inhibition of recombinant full-length human C-terminal His6-tagged CDK2/recombinant full-length human N-terminal GST-tagged cyclin E using fluorescein-QSPKKG-CONH2 as substrate after 60 mins by off-chip mobility shift assay. Type of test: protein-complex assay.
The target in a further test is CDK9/cyclin T1 (Homo sapiens, UniProt P50750).
Test [2] can be described thus: Cytotoxicity against human U2OS cells assessed as growth inhibition after 96 hrs by SRB assay. Type of test: functional, cell-based. Background: Sulforhodamine B stains cellular protein and so reports cell mass.

CDK9/cyclin T1, sequence (O60563 whole entry): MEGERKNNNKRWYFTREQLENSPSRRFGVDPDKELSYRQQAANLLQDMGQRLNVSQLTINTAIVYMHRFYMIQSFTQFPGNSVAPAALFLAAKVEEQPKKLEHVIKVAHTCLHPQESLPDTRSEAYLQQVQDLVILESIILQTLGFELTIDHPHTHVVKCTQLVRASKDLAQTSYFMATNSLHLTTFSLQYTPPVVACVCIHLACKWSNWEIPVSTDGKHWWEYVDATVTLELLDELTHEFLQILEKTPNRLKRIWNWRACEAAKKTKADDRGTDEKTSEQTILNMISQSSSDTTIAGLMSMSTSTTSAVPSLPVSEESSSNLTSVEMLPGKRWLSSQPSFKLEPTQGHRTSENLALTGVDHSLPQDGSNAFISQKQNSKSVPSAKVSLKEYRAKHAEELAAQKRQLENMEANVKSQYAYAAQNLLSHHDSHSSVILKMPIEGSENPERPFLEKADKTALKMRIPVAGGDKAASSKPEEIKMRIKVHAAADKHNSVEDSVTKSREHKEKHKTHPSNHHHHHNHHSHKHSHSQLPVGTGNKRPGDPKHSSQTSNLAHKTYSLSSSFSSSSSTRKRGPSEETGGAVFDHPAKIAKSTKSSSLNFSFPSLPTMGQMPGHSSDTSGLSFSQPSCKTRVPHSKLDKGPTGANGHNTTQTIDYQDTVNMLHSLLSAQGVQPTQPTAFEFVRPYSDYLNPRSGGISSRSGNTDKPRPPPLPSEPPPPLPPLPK
CDK9/cyclin T1, sequence (P50750 whole entry): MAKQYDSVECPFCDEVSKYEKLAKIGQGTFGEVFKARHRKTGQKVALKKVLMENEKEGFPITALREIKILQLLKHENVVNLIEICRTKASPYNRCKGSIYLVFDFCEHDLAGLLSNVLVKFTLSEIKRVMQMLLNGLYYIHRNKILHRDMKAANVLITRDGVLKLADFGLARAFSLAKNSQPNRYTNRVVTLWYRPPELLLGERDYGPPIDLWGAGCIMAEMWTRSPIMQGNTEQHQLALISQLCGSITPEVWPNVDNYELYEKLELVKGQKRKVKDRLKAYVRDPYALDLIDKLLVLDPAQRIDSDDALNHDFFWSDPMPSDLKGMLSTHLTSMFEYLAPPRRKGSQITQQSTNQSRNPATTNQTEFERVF

Usually IC50 stands for the midpoint of a concentration-inhibition curve. As to `Cc1c(Nc2ccc(OCCN(C)C)cn2)ncnc1-n1cnc2ccccc21`, the IC50 in test [1] worked out at 65800 nM.

Turning to `c1cnc2ncn(-c3cc(Nc4ccc(OCCN5CCCCC5)cn4)ncn3)c2c1`, the IC50 against CDK9/cyclin T1 worked out at 3 nM; in test [2], 5 nM.
